In data set [1] the test system is hOCT-2 transporters. To be noted: in vitro findings; ref data on file, Bristol-Myers Squibb, Princeton, NJ, USA; cited from earlier work.
Data set [2] is classed as in vivo, human.
Data set [3] deals with coagulation factor Xa. Conditions: cited from earlier work.
For data set [4] the following is noted: compound lacks ionizable groups; cited from earlier work.
For data set [5], the system named is breast cancer resistance protein. To be noted: cited from earlier work.
Data set [6] concerns P-glycoprotein. Conditions: apixaban: ref not given; famotidine: ref 20; cited from earlier work.
The nature of data set [7]: Stability of apixaban in human plasma. The data set is classed as in vitro ADME. Conditions: at −20°C.
Data set [8] is classed as in vivo, human. The source holds these as a separate data set.
The conditions of data set [9]: cited from earlier work.
The conditions of data set [10]: cited from earlier work. This is another data set of the same source.
Data set [11] has as its system gastric pH. Conditions: cited from earlier work.
In data set [12] the test system is hOCT-1. To be noted: cited from earlier work.
Data set [13] concerns human organic cation transporter (hOCT)-3. To be noted: cited from earlier work.
Data set [14] has as its system hOCT-2. To be noted: cited from earlier work.

A value given as a limit tells only on which side of the number the result lay.

As for `COc1ccc(-n2nc(C(N)=O)c3c2C(=O)N(c2ccc(N4CCCCC4=O)cc2)CC3)cc1` [Apixaban, 1-(4-methoxyphenyl)-7-oxo-6-(4-(2-oxopiperidin-1-yl)phenyl)-4,5,6,7-tetrahydro-1H-pyrazolo[3,4-c]pyridine-3-carboxamide], the hOCT-2 substrate entry in data set [1] is recorded as “not a substrate”. Further, in data set [2] (both, human, plasma, po, 10 mg), the AUC(0-inf) was found to be 2220 ng·h/mL, the AUC(0-t) worked out at 2190 ng·h/mL, the Cmax came out at 230 ng/mL and the half-life is 9.2 h. In addition, the “Predose period 2 apixaban concentration as fraction of Cmax” value in data set [2] (six subjects with measurable predose concentrations) is less than 1.5%. Moreover, the “Factor Xa inhibition (description)” value in data set [3] was “potent, reversible, direct, and highly selective inhibitor”. In addition, the “Aqueous solubility dependence on pH” value in data set [4] is recorded as “not affected by changes in pH”. The “Breast cancer resistance protein substrate” value in [5] is on record as “substrate”. Also, the P-glycoprotein substrate entry in [6] is recorded as “substrate”. Further, the “Stability in human plasma” value in data set [7] is “at least 589 days”. Moreover, the “Deaths, serious adverse events, discontinuations, bleeding-related adverse events” value in data set [8] (18 healthy subjects, both treatment periods) is “No deaths, serious adverse events, discontinuations due to adverse events, or clinically relevant bleeding-related adverse events”. Also, the Tolerability entry in [8] (apixaban 10 mg alone and with famotidine 40 mg, healthy subjects) is given as “well tolerated”. In addition, in [9], the “Effect of food on apixaban exposure” value was “no relevant effect” and the “Renal excretion as share of total clearance” value is reported as “approximately 27%”. Also, in [9] (clinical studies), the Elimination half-life entry is on record as “approximately 12 hours” and the Oral bioavailability result was “approximately 50%”.

Take `NC(N)=Nc1nc(CSCCC(N)=NS(N)(=O)=O)cs1` [famotidine]: in [10], the Metabolism result was “minimally metabolized”, the “Potential for CYP-mediated drug–drug interactions” value is “minimal potential” and the “Time of maximal plasma concentrations after oral administration” value is 2 to 3 h. In data set [2] (famotidine 40 mg 3 hours before apixaban 10 mg, healthy subjects), the “Effect of coadministration on apixaban Cmax, AUC0–T, or AUC∞” value is on record as “no effect”. For the same compound, in [11], the “Time for gastric pH to return to baseline after cessation of administration” value is given as 10–12 hours and the “Time of maximal increases in gastric pH post-dose” value was 1–3 hours. For the same compound, the “Inhibition of hOCT-1” value in data set [12] is “moderate inhibitor”. Also, the “Inhibition of hOCT-3” value in data set [13] is recorded as “potent inhibitor”. In addition, the P-glycoprotein substrate result in data set [6] is “substrate”. Besides, the “Inhibition of hOCT-2” value in data set [14] is listed as “moderate inhibitor”.

As a reminder, the AUC(0-inf) is the area under the concentration-time curve extrapolated to infinity. Low values mean low exposure, high ones high exposure. Broadly, the AUC(0-t) is exposure summed from dosing to a finite time, without extrapolation to infinity. The low end stands for less exposure, the high end for more exposure. The Cmax is the maximum level reached in the sampled fluid or tissue. Broadly, the half-life is the time needed for the level to fall by half in the phase considered. Read a low half-life as fast loss.

The record behind these values is PMC3637032 (Clinical Pharmacology : Advances and Applications, 2013).
